Where “and” joins values, the source holds several entries; their conditions need not be identical. Identical values can stand only once. Inconclusive results and toxic doses are left out.
Test system: BDF1 mice, B16 melanoma ip, median survival T/C
Test: NCI In Vivo Anticancer Drug Screen. Data for tumor model B16 Melanoma (intraperitoneal) in B6D2F1 (BDF1) mice
Conditions: endpoint: median survival time, higher = longer survival
Procedure, shortened: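 In this screen, activity was judged from survival or tumor size in treated versus vehicle-treated tumor-bearing mice, reported as T/C.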

[1] = dose: 1.0 mg/kg/injection, schedule: Q01DX009 (ip), vehicle: saline with Tween-80
[2] = dose: 50.0 mg/kg/injection, schedule: Q01DX009 (ip), vehicle: Klucel (hydroxypropylcellulose) (HPC)
[3] = dose: 100.0 mg/kg/injection, schedule: Q01DX009 (ip), vehicle: Klucel (hydroxypropylcellulose) (HPC)
[4] = dose: 200.0 mg/kg/injection, schedule: Q01DX009 (ip), vehicle: Klucel (hydroxypropylcellulose) (HPC)
[5] = dose: 100.0 mg/kg/injection, schedule: Q01DX009 (ip), vehicle: saline with Tween-80
[6] = dose: 25.0 mg/kg/injection, schedule: Q01DX009 (ip), vehicle: Klucel (hydroxypropylcellulose) (HPC)
[7] = dose: 6.25 mg/kg/injection, schedule: Q01DX009 (ip), vehicle: Klucel (hydroxypropylcellulose) (HPC)
[8] = dose: 400.0 mg/kg/injection, schedule: Q01DX009 (ip), vehicle: Klucel (hydroxypropylcellulose) (HPC)
[9] = dose: 100.0 mg/kg/injection, schedule: Q04DX003 (ip), vehicle: Klucel (hydroxypropylcellulose) (HPC)
[10] = dose: 200.0 mg/kg/injection, schedule: Q04DX003 (ip), vehicle: Klucel (hydroxypropylcellulose) (HPC)

CC(C)n1c2c([n+](C)c1/C=C/c1ccccc1)C(=O)c1ccccc1C2=O
T/C (dose: 0.13 mg/kg/injection, schedule: Q01DX009 (ip), vehicle: saline): 94 % of control | T/C (dose: 0.25 mg/kg/injection, schedule: Q01DX009 (ip), vehicle: saline): 96 % of control | T/C (dose: 0.5 mg/kg/injection, schedule: Q01DX009 (ip), vehicle: saline): 100 % of control | T/C [1]: 94 % of control | T/C (dose: 1.0 mg/kg/injection, schedule: Q01DX009 (ip), vehicle: saline): 102 % of control | T/C (dose: 2.0 mg/kg/injection, schedule: Q01DX009 (ip), vehicle: saline): 90 % of control | T/C (dose: 4.0 mg/kg/injection, schedule: Q01DX009 (ip), vehicle: saline): 97 % of control

O=C(O)C1c2ccccc2Cc2ccccc21
T/C (dose: 37.5 mg/kg/injection, schedule: Q04DX003 (ip), vehicle: Klucel (hydroxypropylcellulose) (HPC)): 122 % of control | T/C [2]: 97 % of control | T/C (dose: 75.0 mg/kg/injection, schedule: Q04DX003 (ip), vehicle: Klucel (hydroxypropylcellulose) (HPC)): 119 % of control | T/C [3]: 100 % of control | T/C (dose: 150.0 mg/kg/injection, schedule: Q04DX003 (ip), vehicle: Klucel (hydroxypropylcellulose) (HPC)): 119 % of control | T/C [4]: 105 % of control

Cc1nc(N)nc(N)c1-c1ccc(Cl)c(Cl)c1
T/C (dose: 0.25 mg/kg/injection, schedule: Q01DX009 (ip), vehicle: saline with Tween-80): 104 % of control | T/C (dose: 0.5 mg/kg/injection, schedule: Q01DX009 (ip), vehicle: saline with Tween-80): 102 % of control | T/C (dose: 0.62 mg/kg/injection, schedule: Q01DX009 (ip), vehicle: saline): 102 % of control | T/C (dose: 0.75 mg/kg/injection, schedule: Q01DX009 (ip), vehicle: saline with Tween-80): 115 % of control | T/C [1]: 100 % of control | T/C (dose: 1.0 mg/kg/injection, schedule: Q02DX009 (ip), vehicle: Klucel (hydroxypropylcellulose) (HPC)): 98 % of control | T/C (dose: 1.0 mg/kg/injection, schedule: Q02DX009 (ip), vehicle: saline with Tween-80): 113 % of control | T/C (dose: 1.25 mg/kg/injection, schedule: Q01DX009 (ip), vehicle: saline): 107 % of control | T/C (dose: 1.5 mg/kg/injection, schedule: Q04DX003 (ip), vehicle: saline with Tween-80): 90 % of control | T/C (dose: 2.0 mg/kg/injection, schedule: Q01DX009 (ip), vehicle: saline with Tween-80): 120 % of control | T/C (dose: 2.0 mg/kg/injection, schedule: Q02DX009 (ip), vehicle: Klucel (hydroxypropylcellulose) (HPC)): 100 % of control | T/C (dose: 2.0 mg/kg/injection, schedule: Q02DX009 (ip), vehicle: saline with Tween-80): 119 % of control | T/C (dose: 3.0 mg/kg/injection, schedule: Q01DX009 (ip), vehicle: saline with Tween-80): 112 % of control | T/C (dose: 3.0 mg/kg/injection, schedule: Q04DX003 (ip), vehicle: saline with Tween-80): 90 % of control | T/C (dose: 4.0 mg/kg/injection, schedule: Q02DX009 (ip), vehicle: Klucel (hydroxypropylcellulose) (HPC)): 100 % of control | T/C (dose: 4.0 mg/kg/injection, schedule: Q04DX003 (ip), vehicle: saline with Tween-80): 96 % of control | T/C (dose: 6.0 mg/kg/injection, schedule: Q04DX003 (ip), vehicle: saline with Tween-80): 102 % of control | T/C (dose: 8.0 mg/kg/injection, schedule: Q02DX009 (ip), vehicle: Klucel (hydroxypropylcellulose) (HPC)): 121 % of control | T/C (dose: 8.0 mg/kg/injection, schedule: Q04DX003 (ip), vehicle: saline with Tween-80): 97 % of control | T/C (dose: 10.0 mg/kg/injection, schedule: Q04DX003 (ip), vehicle: saline with Tween-80): 93 % of control

CC(C)C[C@H](O)C(=O)O
T/C (dose: 25.0 mg/kg/injection, schedule: Q01DX009 (ip), vehicle: saline): 104 % of control | T/C (dose: 50.0 mg/kg/injection, schedule: Q01DX009 (ip), vehicle: saline): 110 % of control

O=S1(=O)CC2(N3CCOCC3)CCCCC21 (centres undefined)
T/C [5]: 102 % of control | T/C (dose: 200.0 mg/kg/injection, schedule: Q01DX009 (ip), vehicle: saline with Tween-80): 104 % of control

CCO/C=C1\SC(=S)N(c2cccc(O)c2)C1=O
T/C [6]: 102 % of control | T/C [2]: 102 % of control | T/C [3]: 101 % of control

COc1cccc(NC(=O)Nc2ccccc2Cl)c1
T/C (dose: 100.0 mg/kg/injection, schedule: Q01DX009 (ip), vehicle: gum acacia): 96 % of control | T/C (dose: 200.0 mg/kg/injection, schedule: Q01DX009 (ip), vehicle: gum acacia): 96 % of control | T/C (dose: 400.0 mg/kg/injection, schedule: Q01DX009 (ip), vehicle: gum acacia): 88 % of control

C=C1C(=O)OC2/C=C(\C)CC/C=C(/C=O)C(OC)C(OC(=O)C(C)C)C12 (centres undefined)
T/C [7]: 113 % of control | T/C (dose: 12.5 mg/kg/injection, schedule: Q01DX009 (ip), vehicle: Klucel (hydroxypropylcellulose) (HPC)): 111 % of control | T/C [6]: 104 % of control

CCCCCCCCC1CCC(N)CC1 (centres undefined)
T/C [2]: 93 % of control | T/C [3]: 86 % of control

CSc1nc2ccccc2s1
T/C [2]: 106 % of control | T/C [3]: 115 % of control

Cc1cc2c(cc1C)NC(=O)C(C)CN2 (centres undefined)
T/C [3]: 90 % of control | T/C [4]: 88 % of control | T/C [8]: 87 % of control

CN=C1N[N+]2=CCCCC2S1 (centres undefined)
T/C (dose: 40.0 mg/kg/injection, schedule: Q01DX011 (ip), vehicle: saline): 104 % of control | T/C (dose: 60.0 mg/kg/injection, schedule: Q01DX011 (ip), vehicle: saline): 112 % of control | T/C (dose: 80.0 mg/kg/injection, schedule: Q01DX011 (ip), vehicle: saline): 111 % of control

CCN(CC)N=Nc1ccccc1-c1nc(N)c2ccccc2n1
T/C (dose: 25.0 mg/kg/injection, schedule: Q04DX003 (ip), vehicle: Klucel (hydroxypropylcellulose) (HPC)): 94 % of control | T/C (dose: 50.0 mg/kg/injection, schedule: Q04DX003 (ip), vehicle: Klucel (hydroxypropylcellulose) (HPC)): 109 % of control | T/C [9]: 96 % of control | T/C [10]: 103 % of control

C=CN1CCCC1=O
T/C (dose: 178.0 mg/kg/injection, schedule: Q01DX009 (ip), vehicle: saline): 109 % of control | T/C (dose: 266.0 mg/kg/injection, schedule: Q01DX009 (ip), vehicle: saline): 100 % of control | T/C (dose: 400.0 mg/kg/injection, schedule: Q01DX009 (ip), vehicle: saline): 104 % of control | T/C (dose: 600.0 mg/kg/injection, schedule: Q01DX009 (ip), vehicle: saline): 111 % of control | T/C (dose: 750.0 mg/kg/injection, schedule: Q01DX009 (ip), vehicle: saline): 108 % of control

COc1cccc2c1C(=O)c1c(O)c3c(c(O)c1C2=O)C[C@@](O)(C(=O)CO)C[C@@H]3OC1CC(NC=O)C(O)C(C)O1 (some centres undefined)
T/C (dose: 1.56 mg/kg/injection, schedule: Q01DX009 (ip), vehicle: other): 118 % of control | T/C (dose: 6.25 mg/kg/injection, schedule: Q01DX009 (ip), vehicle: other): 185 % of control | T/C (dose: 12.5 mg/kg/injection, schedule: Q01DX009 (ip), vehicle: other): 171 % of control and 203 % of control | T/C (dose: 25.0 mg/kg/injection, schedule: Q01DX009 (ip), vehicle: other): 194 % of control | T/C (dose: 50.0 mg/kg/injection, schedule: Q01DX009 (ip), vehicle: other): 198 % of control and 259 % of control | T/C (dose: 100.0 mg/kg/injection, schedule: Q01DX009 (ip), vehicle: other): 259 % of control

CC(=O)/C=C/c1ccc(O)cc1
T/C [3]: 113 % of control | T/C [4]: 116 % of control | T/C [8]: 93 % of control

CCOC(=O)Oc1c(OC)cc(C(=O)O[C@@H]2C[C@@H]3CN4CCc5c([nH]c6cc(OC)ccc56)[C@H]4C[C@@H]3[C@H](C(=O)OC)[C@H]2OC)cc1OC
T/C (dose: 0.09 mg/kg/injection, schedule: Q01DX009 (ip), vehicle: saline): 98 % of control | T/C (dose: 0.19 mg/kg/injection, schedule: Q01DX009 (ip), vehicle: saline): 93 % of control | T/C (dose: 0.39 mg/kg/injection, schedule: Q01DX009 (ip), vehicle: saline): 124 % of control | T/C (dose: 0.78 mg/kg/injection, schedule: Q01DX009 (ip), vehicle: saline): 101 % of control | T/C (dose: 1.56 mg/kg/injection, schedule: Q01DX009 (ip), vehicle: saline): 112 % of control | T/C [7]: 87 % of control

C[N+](C)(CCO)Cc1ccccc1
T/C (dose: 50.0 mg/kg/injection, schedule: Q01DX009 (ip), vehicle: saline with Tween-80): 95 % of control | T/C [5]: 90 % of control

Cc1ccc(N=CN(C)Sc2ccc(C(C)(C)C)cc2)c(C)c1
T/C [6]: 100 % of control | T/C [2]: 98 % of control | T/C [3]: 95 % of control | T/C [4]: 94 % of control

O=[N+]([O-])c1ccc(/C=C/c2ccccc2)c([N+](=O)[O-])c1
T/C [9]: 97 % of control | T/C [10]: 96 % of control | T/C (dose: 400.0 mg/kg/injection, schedule: Q04DX003 (ip), vehicle: Klucel (hydroxypropylcellulose) (HPC)): 97 % of control

Source: PubChem BioAssay AID192 (DTP/NCI, 2004)
